# Results reported in patent US20110217300A1, “Quinazolinone Compounds and Methods of Use Thereof” (priority 2007, published 2011).
# Key:
# Assay in all cases: MTS cell viability assay
# Assay type in all cases: cell-based
# A427 = settings: Homo sapiens, A-427, Lung Carcinoma
# Description: (§1) Cell viability was determined by measuring the activity of dehydrogenase enzymes in metabolically active cells using a tetrazolium compound, MTS. The assay was performed as described in Promega Technical Bulletin No. 169 (CellTiter 96 Aqueous Non-Radioactive Cell Proliferation Assay). Two human cancer cell lines were assayed (see, Table 1). Cells were maintained at 37° C. and 5% CO2 in DMEM media (4.5 g/L glucose) supplemented with 10% heat-inactivated FBS, 10 mM L-glutamine, and 10 mM Hepes pH 7.5. Briefly, cells were seeded in 96-well plates as set forth in Table 1 and incubated for 16-24 hours. Candidate compounds were serially diluted in DMSO, further diluted in cell culture media, and then added to cells (final DMSO concentration of 0.33%). Cells were incubated in the presence of candidate compound for 72 hours. MTS stock solution (MTS 2 gm/L, PMS […] in PBS) was added to the cells (final concentration MTS […] and PMS 7.67 mg/L) and incubated for 4 hours. SDS was added to a final concentration of 1.4% and absorbance at 490 nm was measured within two hours using a plate reader. […] GI50 values were given in Table 2 for the compounds listed. The Compound Numbers in Table 2 correspond to the numbers listed parenthetically in the Example titles. Where multiple measurements were made by different technicians, both values are given.
# (§2) Cell viability was determined for N-(3-amino-propyl)-3-chloro-N—[(R)-1-(7-chloro-4-oxo-3-phenylamino-3,4-dihydro-quinazolin-2-yl)-but-3-ynyl]-2-fluoro-benzamide (compound I of Table 2). The cell viability assay of Example 105 was used. GI50 was determined using a variety of cell lines. Cells were plated at 100-5000 cells per well. At least 2 replicates were performed. Where multiple measurements were made by different technicians, both values are given.
# AN3CA = settings: Homo sapiens, AN3-CA, endometrial
# Description: as §1, §2
# ASPC-1 = settings: Homo sapiens, ASPC1, pancreas
# Description: as §1, §2
# BDCM = settings: Lymphoblast
# Description: as §1, §2
# CAKI-2 = settings: Homo sapiens, kidney
# Description: as §1, §2
# CALU-6 = settings: Homo sapiens, lung
# Description: as §1, §2
# CCS292 = settings: Clear cell Sarcoma
# Description: as §1, §2
# COLO-205 = settings: Homo sapiens, colon
# Description: as §1, §2
# HCT-116 = settings: Homo sapiens, colon
# Description: as §1, §2
# HCT-15 = settings: Homo sapiens, colon
# Description: as §1, §2
# HEC1A = settings: Homo sapiens, HEC-1-A, endometrial
# Description: as §1, §2
# HEP-3B = settings: Homo sapiens, Hep3B, liver
# Description: as §1, §2
# KG-1a = settings: Homo sapiens, AML
# Description: as §1, §2
# KG-1 = settings: Homo sapiens, AML
# Description: as §1, §2
# LoVo = settings: Homo sapiens, Colorectal Carcinoma
# Description: as §1, §2
# MDA-MB-231 = settings: Breast adenocarcinoma
# Description: as §1, §2
# NCI-H1299 = settings: Homo sapiens, Non-small cell lung carcinoma
# Description: as §1, §2
# NCI-H441 = settings: Lung Papillary Adenocarcinoma
# Description: as §1, §2
# NCI-H526 = settings: Homo sapiens, Lung carcinoma, variant small cell lung cancer
# Description: as §1, §2
# NTERA-2 c1. D1 = settings: NTERA2, Testis pluripotent embryonal carcinoma
# Description: as §1, §2
# PANC-1 = settings: Homo sapiens, Pancreas epithelioid carcinoma
# Description: as §1, §2
# PLC/PRF/5 = settings: Homo sapiens, liver
# Description: as §1, §2
# RT-4 = settings: Human urinary bladder cell carcinoma
# Description: as §1, §2
# SK-HEP-1 = settings: Homo sapiens, SK-HEP1, Liver adenocarcinoma
# Description: as §1, §2
# SK-MEL-28 = settings: Malignant melanoma
# Description: as §1, §2
# SKMES-1 = settings: Homo sapiens, SK-MES-1, Squamous cell carcinoma
# Description: as §1, §2
# SNU-16 = settings: Homo sapiens, Gastric Carcinoma
# Description: as §1, §2
# SNU475 = settings: Homo sapiens, SNU-475, liver
# Description: as §1, §2
# SW480 = settings: colon
# Description: as §1, §2
# SW620 = settings: Homo sapiens, SW-620, Colorectal adenocarcinoma
# Description: as §1, §2
# THP-1 = settings: Homo sapiens, Acute monocytic leukemia
# Description: as §1, §2
# WIDR = settings: Homo sapiens, Colorectal adenocarcinoma
# Description: as §1, §2
# WM-266.4 = settings: Homo sapiens, WM 266-4, Melanoma
# Description: as §1, §2
smiles,measurement,setting,value
"C#CC[C@H](c1nc2cc(Cl)ccc2c(=O)n1Nc1ccccc1)N(CCCN)C(=O)c1cccc(Cl)c1F [Compound 1, N-(3-Amino-propyl)-3-chloro-N—[(R)-1-(7-chloro-4-oxo-3-phenylamino-3,4-dihydro-quinazolin-2-yl)-but-3-ynyl]-2-fluoro-benzamide]",GI50,A427,64 nM
same,GI50,AN3CA,201 nM
same,GI50,ASPC-1,549 nM
same,GI50,BDCM,207 nM
same,GI50,CAKI-2,4240 nM
same,GI50,CALU-6,105 nM
same,GI50,CCS292,833 nM
same,GI50,COLO-205,106 nM
same,GI50,HCT-116,74 nM
same,GI50,HCT-15,3020 nM
same,GI50,HEC1A,316 nM
same,GI50,HEP-3B,773 nM
same,GI50,KG-1a,3200 nM
same,GI50,KG-1,1720 nM
same,GI50,LoVo,359 nM
same,GI50,"MDA-MB-231; Homo sapiens, MDA-MB-231, MDA-MB-231",359 nM
same,GI50,"MDA-MB-231; MDA-MB-231, listed as I",249 nM
same,GI50,NCI-H1299,549 nM
same,GI50,"NCI-H441; Homo sapiens, NCI-H441, NCI-H441",3340 nM
same,GI50,"NCI-H441; NCI-H441, listed as I",2250 nM
same,GI50,NCI-H526,125 nM
same,GI50,NTERA-2 c1. D1,63 nM
same,GI50,PANC-1,1170 nM
same,GI50,PLC/PRF/5,135 nM
same,GI50,RT-4,368 nM
same,GI50,SK-HEP-1,319 nM
same,GI50,"SK-MEL-28; Homo sapiens, SK-MEL-28, SK-MEL-28",2160 nM
same,GI50,"SK-MEL-28; SK-MEL-28, listed as I",3130 nM
same,GI50,SKMES-1,1000 nM
same,GI50,SNU-16,136 nM
same,GI50,SNU475,2350 nM
same,GI50,"SW480; Homo sapiens, SW480, SW480",1270 nM
same,GI50,"SW480; SW480, listed as I",1220 nM
same,GI50,SW620,317 nM
same,GI50,THP-1,226 nM
same,GI50,WIDR,783 nM
same,GI50,WM-266.4,2300 nM
